Measured values taken from patent US20220106271A1, “2-BROMO-6-ALKOXYPHENYL-SUBSTITUTED PYRROLIN-2-ONES AND THEIR USE AS HERBICIDES” (Bayer Aktiengesellschaft, priority 2018, published 2022).

Assays:
Assay type in all cases: in vivo
Echinochloa crus-galli [1] = assay: Post-emergence herbicidal effect, greenhouse pot test; details: 80 g/ha, post-emergence at one-leaf stage, assessed visually after about 3 weeks; 100% = plants have died, 0% = like control plants
Description: (§1) Seeds of monocotyledonous and dicotyledonous weed and crop plants are laid out in sandy loam soil in wood-fibre pots, covered with soil and cultivated in a greenhouse under good growth conditions. 2 to 3 weeks after sowing, the test plants are treated at the one-leaf stage. The compounds of the invention, formulated in the form of wettable powders (WP) or as emulsion concentrates (EC), are then sprayed onto the green parts of the plants as aqueous suspension or emulsion at a water application rate equating to 600 to 800 L/ha with addition of 0.2% wetting agent. After the test plants have been left to stand in the greenhouse under optimal growth conditions for about 3 weeks, the action of the preparations is assessed visually in comparison to untreated controls (herbicidal action in percent (%): 100% activity=the plants have died, 0% activity=like control plants).

Setaria viridis [2] = assay: as above; details: 80 g/ha, post-emergence at one-leaf stage, assessed visually after about 3 weeks; 100% = plants have died, 0% = like control plants
Description: as §1

Hordeum murinum [3] = assay: as above; details: 80 g/ha, post-emergence at one-leaf stage, assessed visually after about 3 weeks; 100% = plants have died, 0% = like control plants
Description: as §1

Alopecurus myosuroides [4] = assay: as above; details: 80 g/ha, post-emergence at one-leaf stage, assessed visually after about 3 weeks; 100% = plants have died, 0% = like control plants
Description: as §1

Avena fatua [5] = assay: as above; details: 80 g/ha, post-emergence at one-leaf stage, assessed visually after about 3 weeks; 100% = plants have died, 0% = like control plants
Description: as §1

Lolium rigidum [6] = assay: as above; details: 80 g/ha, post-emergence at one-leaf stage, assessed visually after about 3 weeks; 100% = plants have died, 0% = like control plants
Description: as §1

Abutylon threophrasti = assay: Pre-emergence herbicidal effect, greenhouse pot test; details: scored visually after 3 weeks, dosage 320 g/ha printed only in the upper half of Table 2
Source text: (§2) 1. Pre-emergence herbicidal effect and crop plant compatibility Seeds of monocotyledonous and dicotyledonous weed plants and crop plants are laid out in sandy loam soil in wood-fibre pots and covered with soil. The compounds of the invention, formulated in the form of wettable powders (WP) or as emulsion concentrates (EC), are then applied to the surface of the covering soil as aqueous suspension or emulsion at a water application rate equating to 600 to 800 L/ha with addition of 0.2% wetting agent.
(§3) After the treatment, the pots are placed in a greenhouse and kept under good growth conditions for the trial plants. The damage to the test plants is scored visually after a test period of 3 weeks by comparison with untreated controls (herbicidal activity in percent (%): 100% activity=the plants have died, 0% activity=like control plants).

Amaranthus retroflexus = assay: as above; details: scored visually after 3 weeks, dosage 320 g/ha printed only in the upper half of Table 2
Source text: as §2, §3

Polygonum convolvulus = assay: as above; details: scored visually after 3 weeks, dosage 320 g/ha printed only in the upper half of Table 2
Source text: as §2, §3

Veronica persica = assay: as above; details: scored visually after 3 weeks, dosage 320 g/ha printed only in the upper half of Table 2
Source text: as §2, §3

Echinochloa crus-galli [7] = assay: as above; details: 320 g/ha, scored visually after 3 weeks, 100% = plants have died, 0% = like control plants
Source text: as §2, §3

Viola tricolor = assay: as above; details: scored visually after 3 weeks, dosage 320 g/ha printed only in the upper half of Table 2
Source text: as §2, §3

Setaria viridis [8] = assay: as above; details: 320 g/ha, scored visually after 3 weeks, 100% = plants have died, 0% = like control plants
Source text: as §2, §3

Hordeum murinum [9] = assay: as above; details: scored visually after 3 weeks, dosage 320 g/ha printed only in the upper half of Table 2
Source text: as §2, §3

Stellaria media = assay: as above; details: scored visually after 3 weeks, dosage 320 g/ha printed only in the upper half of Table 2
Source text: as §2, §3

Alopecurus myosuroides [10] = assay: as above; details: 320 g/ha, scored visually after 3 weeks, 100% = plants have died, 0% = like control plants
Source text: as §2, §3

Cyperus esculentus = assay: as above; details: 320 g/ha, scored visually after 3 weeks, 100% = plants have died, 0% = like control plants
Source text: as §2, §3

Lolium rigidum [11] = assay: as above; details: 320 g/ha, scored visually after 3 weeks, 100% = plants have died, 0% = like control plants
Source text: as §2, §3

Avena fatua [12] = assay: as above; details: 320 g/ha, scored visually after 3 weeks, 100% = plants have died, 0% = like control plants
Source text: as §2, §3

SMILES	Post-emergence action ECHCG (herbicidal action in percent) (Echinochloa crus-galli [1])	Post-emergence action SETVI (herbicidal action in percent) (Setaria viridis [2])	Post-emergence action HORMU (herbicidal action in percent) (Hordeum murinum [3])	Post-emergence action ALOMY (herbicidal action in percent) (Alopecurus myosuroides [4])	Post-emergence action AVEFA (herbicidal action in percent) (Avena fatua [5])	Post-emergence action LOLRI (herbicidal action in percent) (Lolium rigidum [6])	Pre-emergence action ABUTH (herbicidal activity in percent) (Abutylon threophrasti)	Pre-emergence action AMARE (herbicidal activity in percent) (Amaranthus retroflexus)	Pre-emergence action POLCO (herbicidal activity in percent) (Polygonum convolvulus)	Pre-emergence action VERPE (herbicidal activity in percent) (Veronica persica)	Pre-emergence action ECHCG (herbicidal activity in percent) (Echinochloa crus-galli [7])	Pre-emergence action VIOTR (herbicidal activity in percent) (Viola tricolor)	Pre-emergence action SETVI (herbicidal activity in percent) (Setaria viridis [8])	Pre-emergence action HORMU (herbicidal activity in percent) (Hordeum murinum [9])	Pre-emergence action STEME (herbicidal activity in percent) (Stellaria media)	Pre-emergence action ALOMY (herbicidal activity in percent) (Alopecurus myosuroides [10])	Pre-emergence action CYPES (herbicidal activity in percent) (Cyperus esculentus)	Pre-emergence action LOLRI (herbicidal activity in percent) (Lolium rigidum [11])	Pre-emergence action AVEFA (herbicidal activity in percent) (Avena fatua [12])
CC#Cc1cc(Br)c(C2=C(O)C3(CCC(OC)CC3)NC2=O)c(OC)c1 (single isomer, unassigned) [Example 1.1, 3-[2-Bromo-6-methoxy-4-(prop-1-yn-1-yl)phenyl]-4-hydroxy-8-methoxy-1-azaspiro[4.5]dec-3-en-2-one]	100%	90%	100%	90%	100%	100%	100%	100%	100%	100%	100%	100%	100%	100%	100%	100%	100%	100%	
CC#Cc1cc(Br)c(C2=C(O)C3(CCC(OC)CC3)NC2=O)c(OC)c1 (single isomer, unassigned) [Example 1.2]	100%	90%	100%	90%	90%	90%	100%	100%	100%	100%	100%	100%	100%	100%	100%	100%	100%	100%	100%
CC#Cc1cc(Br)c(C2=C(OC(=O)OCC)C3(CCC(OC)CC3)NC2=O)c(OC)c1 (stereo not drawn) [Example 1.3, 3-[2-Bromo-6-methoxy-4-(prop-1-yn-1-yl)phenyl]-8-methoxy-2-oxo-1-azaspiro[4.5]dec-3-en-4-yl ethyl carbonate]	100%	90%	100%	90%	90%	100%	100%	100%	100%	100%	100%	100%	100%	100%	100%	100%	100%	100%	100%
CC#Cc1cc(Br)c(C2=C(OC(=O)C(C)C)C3(CCC(OC)CC3)NC2=O)c(OC)c1 (stereo not drawn) [Example 1.4]	90%	90%	100%	90%	90%	100%	100%	100%	100%	100%	100%	100%	100%	100%	100%	100%	100%	100%	100%
